In PMC12639566, “Identification of antimalarial drugs and bradykinin as ligands of the Plasmodium membrane protein PfSR10” (iScience, 2025):

Tests used:
[1] = target: T1, PfSR10 (Plasmodium falciparum, UniProt Q8I5P8); assay: FlAsH-BRET assay of PfSR10 extracellular conformational changes; type: cell-based; conditions: for ECL3 movement relative to the PfSR10 N-terminus, S6 sensor: S6 (site 6) sensor site; for ECL1 movement relative to the PfSR10 N-terminus: concentration-dependent
Method: To characterize the binding properties of different ligands (CQ, DHA, PIP-TT, PQ, bradykinin or des-Arg9-bradykinin) to PfSR10, a FlAsH BRET assay was performed as previously described.[29]^,[32]^,[49] We seeded HEK293 cells or COS-7 cells in 6-well plate were transfected with PfSR10 FlAsH BRET sensors (S1 to S6 as indicated in Figure 4B) and incubated for 48 h at 37°C in 5% CO2. The overexpressed PfSR10 sensors cells were washed with FlAsH BRET buffer (25 mM HEPES, 1 mM CaCl2, 140 mM NaCl, 2.7 mM KCl, 0.9 mM MgCl2, 0.37 mM NaH2PO4, 5.5 mM D-glucose, 12 mM NaHCO3) and incubated with 2.5 μM FlLAsH EDT2 (pre-diluted in FLAsH BRET buffer) for 40min at 37°C in 5% CO2. The cells were washed twice, resuspended with FlAsH BRET buffer, and seeded into a 96-well plate at a density of 5x10^4 per well. After adding increasing concentrations of ligand (CQ, DHA, PIP-TT, PQ, bradykinin or des-Arg9-bradykinin) together with luciferase substrate coelenterazine-h (5 μM), the BRET signals between Nluc (440-480 nm) and FlAsH fluorescent moiety (525-585 nm) emissions were examined by a Mithras LB 940 Multimode Microplate Reader.

[2] = target: T1, PfSR10; assay: GloSensor-cAMP assay, inhibition of forskolin-induced cAMP in PfSR10-overexpressing HEK293 cells; type: cell-based
Method: (§1) To examine the constitutive activity of PfSR10, we transfected HEK293 cells with different concentrations of the receptor, including PfSR10, ADGRG2, ADGRG3. For measuring the anti-malarial drugs, bradykinin or des-Arg9-bradykinin-induced inhibition of forskolin-stimulated cAMP level in HEK293 cells or COS-7 cells, the receptor encoding plasmid (PfSR10 or its mutants) or empty plasmid (pcDNA3.1) was co-transfected with the GloSensor plasmid and incubated in an incubator at 37°C with 5% CO2 for 24 h. The transfected cells were then inoculated on 96-well plates (at a density of 4 × 10^4 / well) and incubated in incubators under the same conditions for another 24 hours. Cells were precultured with serum-free medium (Gibco) containing 5% DILUTED GloSensor™cAMP reagent Reserve solution (Progema) for 2 h. The base cAMP signal was directly measured using a multimode tablet reader (PerkinElmer Envision). At the same time, the cAMP signal induced by DHA, PIP-TT, PQ, CQ bradykinin or des-Arg9-bradykinin was detected after adding agonists into the corresponding Wells. Finally, the s-shaped dose response function in GraphPad Prism 7.0 was used to analyze the data.

[3] = target: T1, PfSR10; assay: Gi1-Gγ dissociation BRET assay in PfSR10-overexpressing HEK293 cells; type: cell-based; conditions: for Gi1 coupling with PfSR10 (in words): G protein dissociation assay
From the text: (§2) To characterize the G protein signalling properties of PfSR10, G protein BRET probes were generated according to previous publication.[50] The Gqo BRET probes were generated by replacing the six amino acids of the C- terminus of Gq -RlucII with those from GoA1, creating a chimeric Gqo-RlucII subunit.[51] HEK293 cells or COS-7 cells were co-transfected with PfSR10 and various G protein probes (Gi, Gq and Gqo). Forty-eight hours post-transfection, cells were washed twice with HBSS, resuspended with HBSS buffer, and seeded into a 96-well plate at a density of 5x10^4 per well. After adding increasing concentrations of ligand (CQ, DHA, PIP-TT, PQ, Bradykinin, des-Arg9-bradykinin, bradykinin-Arg-FITC, FITC-bradykinin) together with luciferase substrate coelenterazine 400a (5 μM, Cayman), the BRET signals between […] (440-480 nm) and GFP2 (510 nm) emissions were examined by a Mithras LB 940 Multimode Microplate Reader (Berthold Technologies). The BRET signal was calculated as the ratio of the GFP2 emission to Nluc emission.

[4] = tested on: Plasmodium falciparum; assay: IP3 ELISA in isolated parasites at trophozoite stage; type: cell-based; conditions: 10 μM DHA, 1 h, compared with untreated group
Method: To measure the IP3 levels in the Plasmodium falciparum. P. falciparum parasites were collected as described above. In brief, after 1 h-treatment 1h with 10 μM of DHA, P. falciparum parasites were isolated at the trophozoite stage and washed twice with PBS. Then P. falciparum parasites were disrupted repeatedly by freeze-thaw, sedimented by centrifugation at 600 g for 10 min at 4°C. The supernatant was collected and IP3 levels were determined using IP3 ELISA Kit (Hengyuan Biotechnology, Shanghai) according to manufacturer’s instructions.

[5] = tested on: SR10; assay: GloSensor-cAMP assay in HEK293 cells overexpressing P. vivax SR10; type: cell-based; conditions: one of the two other Plasmodium species
[6] = tested on: PfSR10 mutants; assay: GloSensor-cAMP assay with site-directed PfSR10 mutants; type: cell-based, Plasmodium falciparum
Method: as §1

[7] = tested on: Plasmodium falciparum; assay: cAMP ELISA in isolated parasites at trophozoite stage stimulated with Fsk; type: cell-based; conditions: 10 μM DHA, 3 μM Fsk, compared with untreated group
Method: For determination of the cAMP levels in the Plasmodium falciparum, P. falciparum-infected human erythrocyte s at trophozoite stage, synchronized with sorbitol as previously described.[47] The P. falciparum-infected cells were subject to the 10 μM DHA treatment or not for 1 h after synchronization in the presence of 3 μM of Fsk. P. falciparum parasites were isolated at the trophozoite stage.[48] P. falciparum parasites were washed twice with PBS and resuspended at a concentration of 5×10^6 cells/ml^-1 in the same buffer and incubated for 15 min with 10 μM DHA in the presence 300 nM IBMX to prevent cAMP degradation. After treatment, P. falciparum parasites were disrupted repeatedly by freeze-thaw, sedimented by centrifugation at 600 g for 10 min at 4°C and the supernatant was collected and subjected to cAMP measurement using cAMP ELISA Kit (R&D systems) according to manufacturer’s instructions.

[8] = target: T2, PbSR10 (Plasmodium berghei, UniProt A0A509AUP3); assay: GloSensor-cAMP assay in HEK293 cells overexpressing PbSR10; type: cell-based
[9] = target: PySR10 (Plasmodium yoelii, UniProt V7PQD6); assay: GloSensor-cAMP assay in HEK293 cells overexpressing PySR10; type: cell-based
[10] = target: PcSR10 (Plasmodium chabaudi, UniProt A0A4V0KCI5); assay: GloSensor-cAMP assay in HEK293 cells overexpressing PcSR10; type: cell-based
[11] = target: T1, PfSR10; assay: Gq-Gγ dissociation BRET assay in PfSR10-overexpressing HEK293 cells; type: cell-based
From the text: as §2

[12] = tested on: SR10; assay: GloSensor-cAMP assay in HEK293 cells overexpressing P. knowlesi SR10; type: cell-based; conditions: one of the two other Plasmodium species
[13] = target: T2, PbSR10; assay: Gi protein trimer dissociation assay in HEK293 cells overexpressing PbSR10; type: cell-based
[14] = HEK293 cells overexpressing PfSR10, mean ± SEM

T1 sequence (Q8I5P8 entry or part of it): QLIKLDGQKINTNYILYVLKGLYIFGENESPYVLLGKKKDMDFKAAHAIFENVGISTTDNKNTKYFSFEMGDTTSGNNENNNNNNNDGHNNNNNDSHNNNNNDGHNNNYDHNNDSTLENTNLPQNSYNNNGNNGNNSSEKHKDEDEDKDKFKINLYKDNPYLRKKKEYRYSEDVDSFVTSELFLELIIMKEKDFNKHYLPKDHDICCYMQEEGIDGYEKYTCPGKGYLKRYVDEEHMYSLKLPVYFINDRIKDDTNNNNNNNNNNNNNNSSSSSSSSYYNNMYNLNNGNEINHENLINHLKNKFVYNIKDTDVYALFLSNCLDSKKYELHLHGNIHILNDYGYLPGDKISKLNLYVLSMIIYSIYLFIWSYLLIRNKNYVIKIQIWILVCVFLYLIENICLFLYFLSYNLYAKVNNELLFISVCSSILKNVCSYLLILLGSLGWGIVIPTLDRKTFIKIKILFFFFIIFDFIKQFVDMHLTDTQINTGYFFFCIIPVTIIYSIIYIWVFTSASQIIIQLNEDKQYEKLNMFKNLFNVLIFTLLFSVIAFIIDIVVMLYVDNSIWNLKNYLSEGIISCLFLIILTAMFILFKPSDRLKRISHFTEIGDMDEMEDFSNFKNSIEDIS
T2 sequence (A0A509AUP3 entry or part of it): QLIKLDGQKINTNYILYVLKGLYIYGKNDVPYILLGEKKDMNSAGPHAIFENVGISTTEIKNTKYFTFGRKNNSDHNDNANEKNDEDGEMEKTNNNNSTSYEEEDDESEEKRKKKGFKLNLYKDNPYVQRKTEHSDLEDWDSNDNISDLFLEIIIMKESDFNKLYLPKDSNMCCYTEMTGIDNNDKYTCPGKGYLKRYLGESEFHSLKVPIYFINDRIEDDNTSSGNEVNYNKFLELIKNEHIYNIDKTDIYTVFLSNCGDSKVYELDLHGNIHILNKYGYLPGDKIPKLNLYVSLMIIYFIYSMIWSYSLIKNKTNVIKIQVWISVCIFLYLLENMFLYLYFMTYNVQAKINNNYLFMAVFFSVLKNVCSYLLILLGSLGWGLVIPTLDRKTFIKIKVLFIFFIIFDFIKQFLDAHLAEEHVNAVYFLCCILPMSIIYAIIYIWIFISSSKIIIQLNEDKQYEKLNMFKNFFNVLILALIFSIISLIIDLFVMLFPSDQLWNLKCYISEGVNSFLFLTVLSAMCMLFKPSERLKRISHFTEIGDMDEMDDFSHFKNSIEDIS
Chain of PySR10 (V7PQD6 entry or part of it): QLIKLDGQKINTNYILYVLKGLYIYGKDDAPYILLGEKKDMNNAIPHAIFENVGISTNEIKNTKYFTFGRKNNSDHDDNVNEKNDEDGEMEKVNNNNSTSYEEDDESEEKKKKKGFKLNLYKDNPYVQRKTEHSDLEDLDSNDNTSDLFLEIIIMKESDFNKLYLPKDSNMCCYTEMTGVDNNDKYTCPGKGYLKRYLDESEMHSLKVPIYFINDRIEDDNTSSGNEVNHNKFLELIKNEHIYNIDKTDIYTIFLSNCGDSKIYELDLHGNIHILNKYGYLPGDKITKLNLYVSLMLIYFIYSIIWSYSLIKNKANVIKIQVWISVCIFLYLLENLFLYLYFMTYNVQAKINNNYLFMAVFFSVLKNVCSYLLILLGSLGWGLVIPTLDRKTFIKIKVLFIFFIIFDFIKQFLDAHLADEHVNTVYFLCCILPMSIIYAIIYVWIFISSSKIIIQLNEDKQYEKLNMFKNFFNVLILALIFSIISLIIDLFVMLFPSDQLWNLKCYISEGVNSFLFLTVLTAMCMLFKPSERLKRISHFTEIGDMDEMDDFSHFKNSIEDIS
Chain of PcSR10 (A0A4V0KCI5 entry or part of it): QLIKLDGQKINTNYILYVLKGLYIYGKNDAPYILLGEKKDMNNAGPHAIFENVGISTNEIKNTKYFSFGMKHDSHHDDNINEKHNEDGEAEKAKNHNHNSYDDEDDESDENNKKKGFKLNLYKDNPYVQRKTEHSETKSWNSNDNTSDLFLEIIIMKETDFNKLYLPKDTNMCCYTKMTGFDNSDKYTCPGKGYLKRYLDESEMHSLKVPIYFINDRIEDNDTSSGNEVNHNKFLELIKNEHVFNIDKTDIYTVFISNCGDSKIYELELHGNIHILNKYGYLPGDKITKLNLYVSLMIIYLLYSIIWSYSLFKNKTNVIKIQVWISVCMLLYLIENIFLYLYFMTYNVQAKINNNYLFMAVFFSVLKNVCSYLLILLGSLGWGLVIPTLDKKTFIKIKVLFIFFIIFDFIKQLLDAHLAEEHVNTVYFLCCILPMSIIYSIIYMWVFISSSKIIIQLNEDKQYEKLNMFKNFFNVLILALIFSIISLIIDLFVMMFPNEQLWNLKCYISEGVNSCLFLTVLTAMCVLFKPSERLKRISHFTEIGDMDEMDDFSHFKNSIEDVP

O=C1C(O)=C([C@H]2CC[C@H](c3ccc(Cl)cc3)CC2)C(=O)c2ccccc21 [ATO, atovaquone]
extracellular conformational changes in PfSR10 [1]: did not induce detectable extracellular conformational changes

CCN(CC)CCCC(C)Nc1ccnc2cc(Cl)ccc12 (stereo not shown) [CQ, chloroquine]
EC50 [2]: 36.6 ± 2.97 nM | cAMP inhibition Emax [2, 14]: 0.958 ± 0.03 × 10^3 | ECL3 movement relative to the PfSR10 N-terminus, S6 sensor [1]: separation of ECL3 from the PfSR10 N-terminus | ECL1 movement relative to the PfSR10 N-terminus [1]: inward movement of ECL1 toward the PfSR10 N-terminus | EC50 [3]: 0.75 ± 0.06 nM | Gi1 coupling with PfSR10 (in words) [3]: promoted Gi1 coupling with PfSR10

C[C@H]1[C@@H](O)O[C@@H]2O[C@@]3(C)CC[C@H]4[C@H](C)CC[C@@H]1[C@@]24OO3 [DHA, dihydroartemisinin]
IP3 concentration in the malaria parasite [4]: significantly increased | cAMP response via SR10 of P. vivax [5]: no response | EC50 [2]: 3.94 ± 1.6 nM | cAMP inhibition Emax [2, 14]: 1.136 ± 0.06 × 10^3 | effect of mutation on DHA potency, PfSR10 C454F ([6]; mutant C454F vs wild type): minimal effects | effect of mutation on DHA-induced cAMP inhibition, PfSR10 L587M ([6]; mutant L587M vs wild type): significantly impaired | effect of mutation on DHA-induced cAMP inhibition, PfSR10 N595S ([6]; mutant N595S vs wild type): significantly impaired | effect of mutation on DHA-induced cAMP inhibition, PfSR10 T513A ([6]; mutant T513A vs wild type): significantly impaired | effect of mutation on DHA potency, PfSR10 T528S ([6]; mutant T528S vs wild type): minimal effects | Fsk-stimulated cAMP in the malaria parasite [7]: inhibited | EC50 [8]: 12.3 ± 4.75 nM | EC50 [9]: 36.6 ± 6.78 nM | EC50 [10]: 37.6 ± 15.5 nM | ECL1 movement relative to the PfSR10 N-terminus [1]: inward movement of ECL1 toward the PfSR10 N-terminus | EC50 [11]: 2 ± 0.1 nM | cAMP response via SR10 of P. knowlesi [12]: no response | Gi dissociation downstream of PbSR10 [13]: promoted Gi dissociation

Clc1ccc2c(N3CCN(CCCN4CCN(c5ccnc6cc(Cl)ccc56)CC4)CC3)ccnc2c1.O=P(O)(O)O [PIP-TT, piperaquine-tetraphosphate-tetrahydrate]
cAMP inhibition Emax [2, 14]: 1.070 ± 0.09 × 10^3 | EC50 ([2]; inhibition of Fsk-induced cAMP elevation, HEK293 cells overexpressing PfSR10, mean ± SEM, n=3, read-out: cAMP inhibition EC50): 0.4 ± 0.12 nM | ECL3 movement relative to the PfSR10 N-terminus, S6 sensor [1]: separation of ECL3 from the PfSR10 N-terminus | ECL1 movement relative to the PfSR10 N-terminus [1]: inward movement of ECL1 toward the PfSR10 N-terminus | Gi1 coupling with PfSR10 (in words) [3]: promoted Gi1 coupling with PfSR10 | Gi1-dissociation Emax [3, 14]: -13.00 ± 1.00 × 10^-3 | EC50 ([3]; HEK293 cells overexpressing PfSR10, mean ± SEM, read-out: Gi1-dissociation EC50): 9.18 ± 5.23 nM
